Laboratory results from the NIST ThermoML archive (doi:10.1016/j.jct.2013.04.021).
Numbers after ± are expanded uncertainties.

Experiment: xn = mol fraction of the nth substance listed
Conditions: 101 kPa, Liquid; for mass density: Vibrating tube method; for speed of sound: fixed-path interferometer; for viscosity: Capillary tube (Ostwald / Ubbelohde) method

CCCCOCCO [2-butoxyethan-1-ol] + CCCCCCCCO
Conditions | mass density [kg/m3] | speed of sound [m/s] | viscosity [mPa·s]
293.15 K, x1 = 0.053 | 828.488 ± 0.24 | 1361.8 ± 1.6 | –
293.15 K, x1 = 0.105 | 831.623 ± 0.24 | 1359 ± 1.6 | –
293.15 K, x1 = 0.167 | 835.443 ± 0.24 | 1355.4 ± 1.6 | –
293.15 K, x1 = 0.2004 | 837.529 ± 0.24 | 1353.2 ± 1.6 | –
293.15 K, x1 = 0.2561 | 841.092 ± 0.24 | 1350.3 ± 1.6 | –
293.15 K, x1 = 0.3039 | 844.242 ± 0.24 | 1347.8 ± 1.6 | –
293.15 K, x1 = 0.4046 | 851.133 ± 0.24 | 1342.7 ± 1.6 | –
293.15 K, x1 = 0.5013 | 858.109 ± 0.24 | 1338.2 ± 1.6 | –
293.15 K, x1 = 0.6004 | 865.629 ± 0.24 | 1334 ± 1.6 | –
293.15 K, x1 = 0.7009 | 873.666 ± 0.24 | 1330.3 ± 1.6 | –
293.15 K, x1 = 0.8027 | 882.262 ± 0.24 | 1327 ± 1.6 | –
293.15 K, x1 = 0.852 | 886.596 ± 0.24 | 1325.6 ± 1.6 | –
293.15 K, x1 = 0.9007 | 891.001 ± 0.24 | 1324.4 ± 1.6 | –
293.15 K, x1 = 0.9512 | 895.736 ± 0.24 | 1323.4 ± 1.6 | –
298.15 K, x1 = 0.053 | 825.018 ± 0.24 | 1344.8 ± 1.6 | 6.97 ± 0.15
298.15 K, x1 = 0.1049 | – | – | 6.636 ± 0.15
298.15 K, x1 = 0.105 | 828.108 ± 0.24 | 1342.1 ± 1.6 | –
298.15 K, x1 = 0.167 | 831.899 ± 0.24 | 1338.4 ± 1.6 | 6.076 ± 0.13
298.15 K, x1 = 0.2004 | 833.978 ± 0.24 | 1336.4 ± 1.6 | 5.882 ± 0.13
298.15 K, x1 = 0.2561 | 837.535 ± 0.24 | 1333.4 ± 1.6 | 5.471 ± 0.12
298.15 K, x1 = 0.3039 | 840.656 ± 0.24 | 1330.9 ± 1.6 | 5.254 ± 0.12
298.15 K, x1 = 0.4046 | 847.482 ± 0.24 | 1325.9 ± 1.6 | 4.678 ± 0.1
298.15 K, x1 = 0.5013 | 854.363 ± 0.24 | 1321.3 ± 1.6 | 4.286 ± 0.094
298.15 K, x1 = 0.6004 | 861.773 ± 0.24 | 1316.9 ± 1.5 | 3.885 ± 0.086
298.15 K, x1 = 0.7009 | 869.705 ± 0.24 | 1313.2 ± 1.5 | 3.588 ± 0.079
298.15 K, x1 = 0.8027 | 878.21 ± 0.24 | 1310 ± 1.5 | 3.287 ± 0.072
298.15 K, x1 = 0.852 | 882.514 ± 0.24 | 1308.5 ± 1.5 | 3.165 ± 0.069
298.15 K, x1 = 0.9007 | 886.89 ± 0.24 | 1307.5 ± 1.5 | 3.04 ± 0.066
298.15 K, x1 = 0.9512 | 891.594 ± 0.24 | 1306.5 ± 1.5 | 2.901 ± 0.062
303.15 K, x1 = 0.053 | 821.521 ± 0.24 | 1328.1 ± 1.6 | 5.789 ± 0.13
303.15 K, x1 = 0.1049 | – | – | 5.499 ± 0.12
303.15 K, x1 = 0.105 | 824.6 ± 0.24 | 1325.4 ± 1.6 | –
303.15 K, x1 = 0.167 | 828.337 ± 0.24 | 1321.7 ± 1.6 | 5.128 ± 0.11
303.15 K, x1 = 0.2004 | 830.387 ± 0.24 | 1319.7 ± 1.6 | 4.946 ± 0.11
303.15 K, x1 = 0.2561 | 833.89 ± 0.24 | 1316.7 ± 1.5 | 4.656 ± 0.1
303.15 K, x1 = 0.3039 | 836.962 ± 0.24 | 1314.2 ± 1.5 | 4.44 ± 0.098
303.15 K, x1 = 0.4046 | 843.721 ± 0.24 | 1309.1 ± 1.5 | 4.001 ± 0.088
303.15 K, x1 = 0.5013 | 850.582 ± 0.24 | 1304.5 ± 1.5 | 3.647 ± 0.08
303.15 K, x1 = 0.6004 | 857.95 ± 0.24 | 1300.3 ± 1.5 | 3.31 ± 0.073
303.15 K, x1 = 0.7009 | 865.804 ± 0.24 | 1296.5 ± 1.5 | 3.045 ± 0.067
303.15 K, x1 = 0.8027 | 874.181 ± 0.24 | 1293.3 ± 1.5 | 2.825 ± 0.062
303.15 K, x1 = 0.852 | 878.409 ± 0.24 | 1292 ± 1.5 | 2.734 ± 0.06
303.15 K, x1 = 0.9007 | 882.718 ± 0.24 | 1290.8 ± 1.5 | 2.661 ± 0.058
303.15 K, x1 = 0.9512 | 887.379 ± 0.24 | 1289.8 ± 1.5 | 2.636 ± 0.057
308.15 K, x1 = 0.053 | 818.004 ± 0.24 | 1311.3 ± 1.5 | 5.048 ± 0.11
308.15 K, x1 = 0.1049 | – | – | 4.78 ± 0.11
308.15 K, x1 = 0.105 | 821.021 ± 0.24 | 1308.8 ± 1.5 | –
308.15 K, x1 = 0.167 | 824.71 ± 0.24 | 1305.5 ± 1.5 | 4.442 ± 0.098
308.15 K, x1 = 0.2004 | 826.746 ± 0.24 | 1303.3 ± 1.5 | 4.298 ± 0.095
308.15 K, x1 = 0.2561 | 830.229 ± 0.24 | 1300.5 ± 1.5 | 4.049 ± 0.089
308.15 K, x1 = 0.3039 | 833.292 ± 0.24 | 1298.2 ± 1.5 | 3.878 ± 0.085
308.15 K, x1 = 0.4046 | 839.998 ± 0.24 | 1293.1 ± 1.5 | 3.519 ± 0.077
308.15 K, x1 = 0.5013 | 846.771 ± 0.24 | 1288.7 ± 1.5 | 3.229 ± 0.071
308.15 K, x1 = 0.6004 | 854.07 ± 0.24 | 1284.5 ± 1.5 | 2.965 ± 0.064
308.15 K, x1 = 0.7009 | 861.87 ± 0.24 | 1280.5 ± 1.5 | 2.753 ± 0.06
308.15 K, x1 = 0.8027 | 870.213 ± 0.24 | 1277 ± 1.5 | 2.545 ± 0.055
308.15 K, x1 = 0.852 | 874.403 ± 0.24 | 1275.4 ± 1.5 | 2.457 ± 0.053
308.15 K, x1 = 0.9007 | 878.687 ± 0.24 | 1274.1 ± 1.5 | 2.369 ± 0.052
308.15 K, x1 = 0.9512 | 883.226 ± 0.24 | 1273 ± 1.5 | 2.281 ± 0.051
313.15 K, x1 = 0.053 | 814.437 ± 0.24 | 1294.9 ± 1.5 | –
313.15 K, x1 = 0.105 | 817.45 ± 0.24 | 1292.3 ± 1.5 | –
313.15 K, x1 = 0.167 | 821.134 ± 0.24 | 1289.2 ± 1.5 | –
313.15 K, x1 = 0.2004 | 823.153 ± 0.24 | 1287.3 ± 1.5 | –
313.15 K, x1 = 0.2561 | 826.589 ± 0.24 | 1284.5 ± 1.5 | –
313.15 K, x1 = 0.3039 | 829.618 ± 0.24 | 1282.2 ± 1.5 | –
313.15 K, x1 = 0.4046 | 836.231 ± 0.24 | 1277.4 ± 1.5 | –
313.15 K, x1 = 0.5013 | 842.934 ± 0.24 | 1273 ± 1.5 | –
313.15 K, x1 = 0.6004 | 850.161 ± 0.24 | 1268.8 ± 1.5 | –
313.15 K, x1 = 0.7009 | 857.881 ± 0.24 | 1264.7 ± 1.5 | –
313.15 K, x1 = 0.8027 | 866.131 ± 0.24 | 1261.1 ± 1.5 | –
313.15 K, x1 = 0.852 | 870.301 ± 0.24 | 1259.5 ± 1.5 | –
313.15 K, x1 = 0.9007 | 874.538 ± 0.24 | 1258 ± 1.5 | –
313.15 K, x1 = 0.9512 | 879.067 ± 0.24 | 1256.6 ± 1.5 | –
